# Measured values as given in PubChem BioAssay AID248 (DTP/NCI, 2004).
# “And” between values parts separate entries of the source, which are not always exact repeats. Equal values may be shown once. Inconclusive results and toxic doses are left out.
# Tested on: L1210 leukemia ip in BDF1 mice, survival T/C
# Experiment: NCI In Vivo Anticancer Drug Screen. Data for tumor model L1210 Leukemia (intraperitoneal) in B6D2F1 (BDF1) mice
# Details: higher = longer survival
# Outline: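 In this screen, tumor-bearing mice given compound are compared to those given vehicle, and their survival values are reported as a treated-to-control quotient.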
smiles,measurement,setting,value
NCCc1ccc(O)c(O)c1,T/C,"endpoint: mean survival time, dose: 6.25 mg/kg/injection, schedule: Q03HX024 (ip), vehicle: saline",101 % of control
same,T/C,"endpoint: mean survival time, dose: 12.5 mg/kg/injection, schedule: Q03HX004 (ip), vehicle: saline",113 % of control
same,T/C,"endpoint: mean survival time, dose: 12.5 mg/kg/injection, schedule: Q03HX024 (ip), vehicle: saline",87 % of control
same,T/C,"endpoint: mean survival time, dose: 25.0 mg/kg/injection, schedule: Q01DX001 (ip), vehicle: saline",104 % of control
same,T/C,"endpoint: mean survival time, dose: 25.0 mg/kg/injection, schedule: Q01DX009 (ip), vehicle: Klucel (hydroxypropylcellulose) (HPC)",105 % of control
same,T/C,"endpoint: mean survival time, dose: 25.0 mg/kg/injection, schedule: Q03HX004 (ip), vehicle: saline",113 % of control
same,T/C,"endpoint: mean survival time, dose: 25.0 mg/kg/injection, schedule: Q03HX024 (ip), vehicle: saline",106 % of control
same,T/C,"endpoint: mean survival time, dose: 25.0 mg/kg/injection, schedule: Q04DX003 (ip), vehicle: saline",94 % of control
same,T/C,"endpoint: mean survival time, dose: 50.0 mg/kg/injection, schedule: Q01DX001 (ip), vehicle: saline",100 % of control
same,T/C,"endpoint: mean survival time, dose: 50.0 mg/kg/injection, schedule: Q01DX009 (ip), vehicle: Klucel (hydroxypropylcellulose) (HPC)",114 % of control
same,T/C,"endpoint: mean survival time, dose: 50.0 mg/kg/injection, schedule: Q01DX009 (ip), vehicle: saline",118 % of control and 119 % of control
same,T/C,"endpoint: mean survival time, dose: 50.0 mg/kg/injection, schedule: Q03HX004 (ip), vehicle: saline",124 % of control
same,T/C,"endpoint: mean survival time, dose: 50.0 mg/kg/injection, schedule: Q03HX024 (ip), vehicle: saline",115 % of control
same,T/C,"endpoint: mean survival time, dose: 50.0 mg/kg/injection, schedule: Q04DX003 (ip), vehicle: saline",94 % of control
same,T/C,"endpoint: mean survival time, dose: 100.0 mg/kg/injection, schedule: Q01DX001 (ip), vehicle: saline",108 % of control
same,T/C,"endpoint: mean survival time, dose: 100.0 mg/kg/injection, schedule: Q03HX024 (ip), vehicle: saline",115 % of control
same,T/C,"endpoint: mean survival time, dose: 100.0 mg/kg/injection, schedule: Q04DX003 (ip), vehicle: saline",97 % of control
same,T/C,"endpoint: mean survival time, dose: 150.0 mg/kg/injection, schedule: Q01DX009 (ip), vehicle: saline",104 % of control
same,T/C,"endpoint: mean survival time, dose: 200.0 mg/kg/injection, schedule: Q01DX001 (ip), vehicle: saline",99 % of control
same,T/C,"endpoint: mean survival time, dose: 200.0 mg/kg/injection, schedule: Q04DX003 (ip), vehicle: saline",101 % of control
same,T/C,"endpoint: mean survival time, dose: 400.0 mg/kg/injection, schedule: Q01DX001 (ip), vehicle: saline",115 % of control
same,T/C,"endpoint: mean survival time, dose: 400.0 mg/kg/injection, schedule: Q01DX009 (ip), vehicle: Klucel (hydroxypropylcellulose) (HPC)",152 % of control
same,T/C,"endpoint: mean survival time, dose: 400.0 mg/kg/injection, schedule: Q01DX009 (ip), vehicle: saline",123 % of control
same,T/C,"endpoint: mean survival time, dose: 400.0 mg/kg/injection, schedule: Q04DX003 (ip), vehicle: saline",94 % of control
same,T/C,"endpoint: mean survival time, dose: 600.0 mg/kg/injection, schedule: Q01DX009 (ip), vehicle: saline",103 % of control
same,T/C,"endpoint: mean survival time, dose: 800.0 mg/kg/injection, schedule: Q01DX009 (ip), vehicle: saline",122 % of control
same,T/C,"endpoint: mean survival time, dose: 800.0 mg/kg/injection, schedule: Q04HX003 (ip), vehicle: saline",108 % of control
same,T/C,"endpoint: mean survival time, dose: 1600.0 mg/kg/injection, schedule: Q04HX003 (ip), vehicle: saline",104 % of control
same,T/C,"endpoint: median survival time, dose: 20.0 mg/kg/injection, schedule: Q04HX036 (ip), vehicle: saline",92 % of control
same,T/C,"endpoint: median survival time, dose: 40.0 mg/kg/injection, schedule: Q01DX009 (sc), vehicle: saline",98 % of control
same,T/C,"endpoint: median survival time, dose: 40.0 mg/kg/injection, schedule: Q04HX020 (ip), vehicle: saline",114 % of control
same,T/C,"endpoint: median survival time, dose: 40.0 mg/kg/injection, schedule: Q04HX036 (ip), vehicle: saline",106 % of control
same,T/C,"endpoint: median survival time, dose: 40.0 mg/kg/injection, schedule: Q11DX017 (ip), vehicle: saline",104 % of control
same,T/C,"endpoint: median survival time, dose: 40.0 mg/kg/injection, schedule: Q12HX018 (ip), vehicle: saline",114 % of control
same,T/C,"endpoint: median survival time, dose: 80.0 mg/kg/injection, schedule: Q01DX009 (ip), vehicle: saline",118 % of control
same,T/C,"endpoint: median survival time, dose: 80.0 mg/kg/injection, schedule: Q01DX009 (oral), vehicle: saline",97 % of control
same,T/C,"endpoint: median survival time, dose: 80.0 mg/kg/injection, schedule: Q01DX009 (sc), vehicle: saline",104 % of control
same,T/C,"endpoint: median survival time, dose: 80.0 mg/kg/injection, schedule: Q02DX005 (ip), vehicle: saline",111 % of control
same,T/C,"endpoint: median survival time, dose: 80.0 mg/kg/injection, schedule: Q04HX020 (ip), vehicle: saline",123 % of control
same,T/C,"endpoint: median survival time, dose: 80.0 mg/kg/injection, schedule: Q04HX036 (ip), vehicle: saline",122 % of control
same,T/C,"endpoint: median survival time, dose: 80.0 mg/kg/injection, schedule: Q11DX017 (ip), vehicle: saline",120 % of control
same,T/C,"endpoint: median survival time, dose: 80.0 mg/kg/injection, schedule: Q12HX010 (ip), vehicle: saline",121 % of control
same,T/C,"endpoint: median survival time, dose: 160.0 mg/kg/injection, schedule: Q01DX009 (oral), vehicle: saline",104 % of control
same,T/C,"endpoint: median survival time, dose: 160.0 mg/kg/injection, schedule: Q01DX009 (sc), vehicle: saline",96 % of control
same,T/C,"endpoint: median survival time, dose: 160.0 mg/kg/injection, schedule: Q04HX036 (ip), vehicle: saline",108 % of control
same,T/C,"endpoint: median survival time, dose: 320.0 mg/kg/injection, schedule: Q01DX009 (oral), vehicle: saline",105 % of control
same,T/C,"endpoint: median survival time, dose: 320.0 mg/kg/injection, schedule: Q01DX009 (sc), vehicle: saline",103 % of control
same,T/C,"endpoint: median survival time, dose: 320.0 mg/kg/injection, schedule: Q02DX005 (ip), vehicle: saline",122 % of control
same,T/C,"endpoint: median survival time, dose: 640.0 mg/kg/injection, schedule: Q01DX009 (oral), vehicle: saline",106 % of control
same,T/C,"endpoint: median survival time, dose: 640.0 mg/kg/injection, schedule: Q01DX009 (sc), vehicle: saline",103 % of control
same,T/C,"endpoint: median survival time, dose: 640.0 mg/kg/injection, schedule: Q02DX005 (ip), vehicle: saline",124 % of control
